System: KRAS PDC tumor spheroids (HUVEC+MSC), viability
Test: Anticancer human tumor 254851-301-R-J1-PDC patient-derived colon carcinoma cell line growth inhibition [KRAS2]
Conditions: for viability, T/C: stronger effect = lower value
In short: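 Combination screen of spheroid viability in tumor-cell co-cultures with endothelial (HUVEC) and mesenchymal stem cell stroma. Each agent was tested in half-log dilutions, topping at clinical Cmax or at 10 microM without a known Cmax.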

[1] = curve of first compound, second compound 0.1 µM
[2] = curve of first compound, second compound 0.316 µM
[3] = curve of first compound, second compound 1 µM
[4] = curve of first compound, second compound 3.16 µM
[5] = second compound 0.1 µM, first compound 0.0316 µM
[6] = second compound 0.1 µM, first compound 0.1 µM
[7] = second compound 0.1 µM, first compound 0.316 µM
[8] = second compound 0.1 µM, first compound 1 µM
[9] = second compound 0.1 µM, first compound 3.16 µM
[10] = second compound 0.1 µM, first compound 10 µM
[11] = second compound 0.316 µM, first compound 0.0316 µM
[12] = second compound 0.316 µM, first compound 0.1 µM
[13] = second compound 0.316 µM, first compound 0.316 µM
[14] = second compound 0.316 µM, first compound 1 µM
[15] = second compound 0.316 µM, first compound 3.16 µM
[16] = second compound 0.316 µM, first compound 10 µM
[17] = second compound 1 µM, first compound 0.0316 µM
[18] = second compound 1 µM, first compound 0.1 µM
[19] = second compound 1 µM, first compound 0.316 µM
[20] = second compound 1 µM, first compound 1 µM
[21] = second compound 1 µM, first compound 3.16 µM
[22] = second compound 1 µM, first compound 10 µM
[23] = second compound 3.16 µM, first compound 0.0316 µM
[24] = second compound 3.16 µM, first compound 0.1 µM
[25] = second compound 3.16 µM, first compound 0.316 µM
[26] = second compound 3.16 µM, first compound 1 µM
[27] = second compound 3.16 µM, first compound 3.16 µM
[28] = second compound 3.16 µM, first compound 10 µM
[29] = curve of first compound, second compound 10 µM
[30] = second compound 10 µM, first compound 0.0316 µM
[31] = second compound 10 µM, first compound 0.1 µM
[32] = second compound 10 µM, first compound 0.316 µM
[33] = second compound 10 µM, first compound 1 µM
[34] = second compound 10 µM, first compound 3.16 µM
[35] = second compound 10 µM, first compound 10 µM
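Note: spheroids exposed to compounds for seven days before readout.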
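Throughout, for viability, T/C: 100% = DMSO vehicle control luminescence of the spheroids.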

Row | Structure (SMILES) | IC50 [1] [µM] | IC50 [2] [µM] | IC50 [3] [µM] | IC50 [4] [µM] | viability, T/C [5] [%] | viability, T/C [6] [%] | viability, T/C [7] [%] | viability, T/C [8] [%] | viability, T/C [9] [%] | viability, T/C [10] [%] | viability, T/C [11] [%] | viability, T/C [12] [%] | viability, T/C [13] [%] | viability, T/C [14] [%] | viability, T/C [15] [%] | viability, T/C [16] [%] | viability, T/C [17] [%] | viability, T/C [18] [%] | viability, T/C [19] [%] | viability, T/C [20] [%] | also measured
1 | COc1cc(Nc2ncc3c(n2)-c2ccc(Cl)cc2C(c2c(F)cccc2OC)=NC3)ccc1C(=O)O + C=CC(=O)N1CCN(c2nc(OCC3CCCN3C)nc3c2CCN(c2cccc4cccc(C)c24)C3)CC1CC#N | 0.0872 | 0.0891 | 0.078 | 0.0346 | 82.4 | 40 | 31.1 | 27 | 16.2 | 8.9 | 79.4 | 40.6 | 32.7 | 24.5 | 17 | 7.34 | 73.5 | 37.5 | 32 | 25.9 | IC50 (curve of first compound, second compound 0.0316 µM): 0.0892 µM; viability, T/C (second compound 0.0316 µM, first compound 0.0316 µM): 84.6%; viability, T/C (second compound 0.0316 µM, first compound 0.1 µM): 41.6%; viability, T/C (second compound 0.0316 µM, first compound 0.316 µM): 30.3%; viability, T/C (second compound 0.0316 µM, first compound 1 µM): 27.5%; viability, T/C (second compound 0.0316 µM, first compound 3.16 µM): 17.7%; viability, T/C (second compound 0.0316 µM, first compound 10 µM): 9.36%; viability, T/C [21]: 16.4%; viability, T/C [22]: 8.35%; viability, T/C [23]: 53.9%; viability, T/C [24]: 22.1%; viability, T/C [25]: 19.8%; viability, T/C [26]: 17%; viability, T/C [27]: 6.88%; viability, T/C [28]: 1.67%
2 | COC(=O)c1ccc2c(C(=Nc3ccc(N(C)C(=O)CN4CCN(C)CC4)cc3)c3ccccc3)c(O)[nH]c2c1 |  |  |  |  |  |  |  |  |  |  |  |  |  |  |  |  |  |  |  |  | viability, T/C (compound 0.0316 µM): 104% [middle of 5 runs]; viability, T/C (compound 0.1 µM): 99.1% [middle of 5 runs]; viability, T/C (compound 0.316 µM): 95.2% [middle of 5 runs]; viability, T/C (compound 1 µM): 97.2% [middle of 5 runs]; viability, T/C (compound 3.16 µM): 86.5% [middle of 5 runs]; viability, T/C (compound 10 µM): 95.5% [middle of 5 runs]; IC50 (curve of compound): > 10 µM
3 | CCNC(=O)CC1N=C(c2ccc(Cl)cc2)c2cc(OC)ccc2-n2c(C)nnc21 (configuration not stated) + C=CC(=O)N1CCN(c2nc(=O)n(-c3c(C)ccnc3C(C)C)c3nc(-c4c(O)cccc4F)c(F)cc23)C(C)C1 | > 10 | > 10 | > 10 | > 10 | 107 | 99.6 | 96.8 | 91 | 81 | 77.3 | 95 | 86.4 | 95.2 | 76.2 | 82.2 | 65.1 | 80.3 | 94.8 | 86.3 | 80.7 | IC50 [29]: > 10 µM; viability, T/C [21]: 89.3%; viability, T/C [22]: 74.2%; viability, T/C [23]: 72.3%; viability, T/C [24]: 76.1%; viability, T/C [25]: 97%; viability, T/C [26]: 84.5%; viability, T/C [27]: 79.9%; viability, T/C [28]: 59.4%; viability, T/C [30]: 105%; viability, T/C [31]: 96.2%; viability, T/C [32]: 95.6%; viability, T/C [33]: 91.2%; viability, T/C [34]: 86%; viability, T/C [35]: 67.8%
4 | O=C(c1cc(Cc2n[nH]c(=O)c3ccccc23)ccc1F)N1CCN(C(=O)C2CC2)CC1 + CNCc1ccccc1-c1csc(C(C)Nc2nc(C)nc3cc(OC)c(OC)cc23)c1 | > 10 | > 10 | > 10 | > 10 | 101 | 109 | 104 | 108 | 113 | 105 | 107 | 108 | 107 | 109 | 104 | 105 | 116 | 109 | 103 | 110 | IC50 [29]: < 0.0316 µM; viability, T/C [21]: 105%; viability, T/C [22]: 103%; viability, T/C [23]: 79.6%; viability, T/C [24]: 97.1%; viability, T/C [25]: 82.4%; viability, T/C [26]: 59.3%; viability, T/C [27]: 82.3%; viability, T/C [28]: 71.6%; viability, T/C [30]: 0.19%; viability, T/C [31]: 0.29%; viability, T/C [32]: 0.18%; viability, T/C [33]: 0.17%; viability, T/C [34]: 0.17%; viability, T/C [35]: 0.22%
5 | COc1cc2nccc(Oc3ccc(NC(=O)C4(C(=O)Nc5ccc(F)cc5)CC4)cc3)c2cc1OC + C=CC(=O)N1CCN(c2nc(=O)n(-c3c(C)ccnc3C(C)C)c3nc(-c4c(O)cccc4F)c(F)cc23)C(C)C1 | > 10 | > 10 | > 10 | > 10 | 108 | 102 | 99.3 | 110 | 104 | 65.9 | 104 | 107 | 113 | 110 | 99.4 | 57.4 | 109 | 115 | 113 | 103 | IC50 [29]: > 10 µM; viability, T/C [21]: 104%; viability, T/C [22]: 74.8%; viability, T/C [23]: 114%; viability, T/C [24]: 112%; viability, T/C [25]: 111%; viability, T/C [26]: 117%; viability, T/C [27]: 108%; viability, T/C [28]: 72.1%; viability, T/C [30]: 131%; viability, T/C [31]: 115%; viability, T/C [32]: 111%; viability, T/C [33]: 112%; viability, T/C [34]: 90.8%; viability, T/C [35]: 62.6%
